According to PMC8648968 (The FEBS journal, 2021):
“Also recorded” adds a separate entry of the source. One block for each molecule: values may come before it. Where no end group is shown, it is not given here. [ ]: non-standard residue; d: D form. pS = N[C@@H](COP(=O)(O)O)C(=O)O

Experiments:
[1] = tested on: HCE cells; test: Hst1 localization by immunofluorescence after DTG pretreatment; type: cell-based, human; details: pretreatment with escalating concentrations of DTG (Fig. S4)
[2] = tested on: TMEM97 (108-176); test: Circular dichroism, secondary structure on mixing with TMEM97; type: binding; details: CD, pH 7.4, 0.05% DDM, room temperature
[3] = biological target: full-length TMEM97 (Homo sapiens, UniProt Q5BJF2); test: SPR, recombinant full-length TMEM97; type: binding; details: Biacore 8K, pH 7.4, 25 °C
Chain of full-length TMEM97 (Q5BJF2 whole entry): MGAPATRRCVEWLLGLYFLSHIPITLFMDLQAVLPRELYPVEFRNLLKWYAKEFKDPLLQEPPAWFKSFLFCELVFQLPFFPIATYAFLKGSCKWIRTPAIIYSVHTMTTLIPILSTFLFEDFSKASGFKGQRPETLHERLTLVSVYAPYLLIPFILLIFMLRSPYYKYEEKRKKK

[4] = biological target: GST-TMEM97 (108-176) (Homo sapiens, UniProt Q5BJF2); test: SPR, recombinant GST-TMEM97; type: binding; details: Biacore 8K, pH 7.4, 25 °C
[5] = biological target: synthetic TMEM97 (108-176) (Homo sapiens, UniProt Q5BJF2); test: SPR, synthetic TMEM97; type: binding; details: Biacore 8K, pH 7.4, 25 °C
[6] = tested on: HSC70; details: cited from earlier work
[7] = Circular dichroism, secondary structure of peptide alone in solution; type: physicochemical; details: CD, TMEM97 (108-176) alone, pH 7.4, 0.05% DDM, room temperature, DichroWeb
[8] = biological target: T1, Synthetic TMEM97 (108-176); test: SPR
T1 peptide: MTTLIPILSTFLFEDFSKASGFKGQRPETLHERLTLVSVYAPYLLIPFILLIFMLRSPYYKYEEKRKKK

[9] = biological target: Recombinant full-length TMEM97 (Sigma-2 receptor) (UniProt Q5BJF2 1-176); test: SPR
[10] = biological target: Recombinant GST-TMEM97 (108-176) (UniProt Q5BJF2 108-176); test: SPR
[11] = biological target: TMEM97 (S2R) overexpressed in HEK293T cell membranes (UniProt Q5BJF2 1-176); test: radioligand binding

Molecule: Cc1ccccc1NC(=N)Nc1ccccc1C [DTG, 1,3-di-o-tolylguanidine]
- Effect on Hst1 localization [1]: Hst1 localization is reduced by pretreatment with DTG

- Binding by SPR (in words) [5]: did not bind
Molecule: HYHKFHRYYDPGSNLYKEHNHGFHHGYKDEFRREpSRDS [Hst1SP]
- Change of secondary structure on mixing with TMEM97 (108-176) [2]: did not induce increased secondary structural features; also recorded: did not induce increased secondary structural elements
- Binding by SPR (in words) [3]: did not exhibit binding; also recorded: unable to bind
- Binding by SPR (in words) [4]: did not exhibit binding; also recorded: unable to bind

Molecule: Hst3: histatin-3, histatin family peptide cited from Imamura et al. (DSHAKRHHGYKRKFHEKHHSHRGYRSNYLYDN; Histatin-3; UniProt P15516 20-51, looked up)
- Interaction with HSC70 [6]: interact with, but not clearly directly bind

- Turns content [7]: 14%
- Unordered content [7]: 17%
- β-strand content [7]: 23%
Molecule: MTTLIPILSTFLFEDFSKASGFKGQRPETLHERLTLVSVYAPYLLIPFILLIFMLRSPYYKYEEKRKKK [TMEM97 (108-176)]

- Kd [8]: 6.3 µM
- Kd [9]: 5.3 µM
- Kd [10]: 6.6 µM
- Ki [11]: 0.239 µM
Molecule: D[pS]HEKRHHGYRRKFHEKHHSHREFPFYGDYGSNYLYDN [Histatin-1 (Hst1)]
